Patent publication US11234982B2, “Methods for treating ocular surface pain” (NOVARTIS AG, priority 2019, dated 2022)
“Also recorded” adds a separate entry of the source.

How the values were obtained:
[1] = test system: patients undergoing photorefractive keratectomy (PRK) surgery; test: PRK study: ocular safety assessments and vital signs; assay type: in vivo, human
Method: (§1) The study was a proof of concept, double-masked, randomized, vehicle-controlled study of compound I administered as eye drops in addition to standard of care treatment in patients after PRK surgery. PRK surgery was performed as an outpatient procedure under topical anesthesia with removal of the corneal epithelium to expose the stroma for the laser ablation. Compound I dosing was as single eye drop of 2.5% (25 mg/ml, 0.925 mg/drop), administered four times daily (every six hours) in one eye from immediate post-op (time 0) to last dose at 72 hours.
(§2) Adverse events and serious adverse events included an assessment of both systemic and ocular assessments. Systemic safety assessments included regular assessments of height and weight, vital signs, reporting medication errors including misuse/abuse, pregnancy reporting and early phase safety monitoring. The misuse/abuse, pregnancy reporting and early phase safety monitoring were not assessed for the study. Ocular safety assessments included the following: • Best-corrected visual acuity (BCVA) and uncorrected visual acuity (UCVA): Was measured at each visit using an ETDRS visual acuity chart at 4 meters (13 feet) or 1 meter (for patients that cannot read the 4 meter chart). The BCVA scoring was done based on the number of correctly read letters plus 30. If visual acuity was so poor that the patient could not read any of the largest letters at 1 meter, count fingers and hand movement vision and light perception was tested. • Intraocular Pressure (TOP): IOP measurements were conducted with applanation tonometry or Tonopen. • Dilated fundus exam: The dilated fundus examination included ophthalmoscopic assessments of the vitreous, retina/macula/choroid, and optic nerve. Evaluations for retinal tear/detachment, retinal hemorrhage, vitreous hemorrhage density, vitreous haze grading and abnormal findings were done and scored according to grading criteria. • Ocular hyperemia: Conjunctival redness of the bulbar conjunctiva in each eye at the slit lamp according to the McMonnies redness scale was graded. […] By adjusting the calibrated slit beam width and height, the maximum horizontal (wound width) and vertical dimensions (wound height) of the surgical epithelial wound was estimated. The evaluation was performed until wound closure and report of wound size as 0 horizontal and 0 vertical dimensions. • Slit-lamp biomicroscopy: Ocular signs (eyelids/conjunctiva, cornea, lens, and iris/anterior chamber) was assessed in both eyes by slit lamp biomicroscopy according to the grading criteria. • Blink rate: A blink was defined as a bilateral paroxysmal closure of the eyelids (duration<1 second) in the absence of a provoking external stimulus. Each blink assessment lasted for 2 min (or as close to 2 minutes as possible with minimum time 1 minute) and the obtained blink rate was averaged to calculate blink rate in blinks/min. • Tear production (Schirmer's test without anesthesia): The test was performed without anesthetic in both eyes simultaneously. Tear secretion was measured in millimeters of the length of strip wetted by tears. […] The strip was wetted with 1 drop of sterile saline and flicked to remove excess saline. The patient blinked several times to ensure dispersion of the dye throughout the tear film prior to grading on a scale of 0-3 (0=Normal, No staining; 1=Mild, Superficial stippling micropunctate staining; 2=Moderate, Macropunctate staining with some coalescent areas and 3=Severe, Numerous coalescent macropunctate areas and/or patches) for each of 5 zones (central plus 4 quadrants).

[2] = test system: patients undergoing photorefractive keratectomy (PRK) surgery; test: PRK study: adverse events; assay type: in vivo, human
Method: as §1
Safety assessments consisted of collecting all AEs, SAEs, with their severity and relationship to study drug. Only signs and symptoms greater than the listed ranges of either severity or duration were reported as AEs.
as §2

[3] = across the scheduled time points

Structure (SMILES): CC(C)c1nc2cc(O)ccc2c(=O)n1-c1ccc(C#N)cc1 [Compound I, 4-(7-hydroxy-2-isopropyl-4-oxo-4H-quinazolin-3-yl)-benzonitrile]
- Ocular hyperemia (McMonnies scale) grade 4, compound I vs Vehicle treated eyes ([1]; Day 2 postoperatively (24 hours after PRK surgery)): less grade 4 hyperemia (all quadrants); also recorded: Fewer compound I-treated eyes showed severe conjunctival hyperemia
- Ocular hyperemia (McMonnies scale) grade 3, compound I vs Vehicle treated eyes ([1]; Day 3 (48 hours post-operative)): less grade 3 hyperemia
- Dilated fundus exam [1, 3]: No abnormal findings
- Slit-lamp biomicroscopy: aqueous flare and inflammatory cell grade, iris/anterior chamber, lens [1, 3]: No abnormalities were observed
- Changes in BCVA, IOP, slit-lamp biomicroscopy, dilated eye exam, blink rate, tear production, corneal staining, vital signs compared to Vehicle ([1]; after compound I administration): no clinically relevant changes
- Vital sign parameters (blood pressures, pulse rate, body temperature) ([1]; all patients during the study): within the normal range
- Increase in mean IOP values compared to Baseline ([1]; at the end of study): < 5 mmHg
- Corneal staining, compound I versus Vehicle ([1]; baseline, Day 8, EOS visit): No clinical differences were observed
- Best-corrected visual acuity (BCVA) and uncorrected visual acuity (UCVA), compound I vs Vehicle-treated eyes ([1]; throughout the study): did not result in any trend or obvious difference
- Blink rate, compound I vs Vehicle treatment ([1]; throughout the study): no trend across the scheduled time points or obvious differences
- Intraocular pressure, compound I vs Vehicle-treated eyes ([1]; throughout the study): No trend across the scheduled time points or obvious differences
- Non-ocular AE Arthralgia: Procedure related ([2]; Compound I 2.5%): no
- Non-ocular AE Arthralgia: Severity ([2]; Compound I 2.5%): mild
- Non-ocular AE Headache: Procedure related ([2]; Compound I 2.5%): no
- Non-ocular AE Headache: Severity ([2]; Compound I 2.5%): mild
- Non-ocular AE Nasopharyngitis: Procedure related ([2]; Compound I 2.5%): no
- Non-ocular AE Nasopharyngitis: Severity ([2]; Compound I 2.5%): mild, mild
- Non-ocular AE Oropharyngeal Pain: Procedure related ([2]; Compound I 2.5%): no
- Non-ocular AE Oropharyngeal Pain: Severity ([2]; Compound I 2.5%): mild
- Non-ocular AE Pyrexia: Procedure related ([2]; Compound I 2.5%): no
- Non-ocular AE Pyrexia: Severity ([2]; Compound I 2.5%): moderate
- Non-ocular AE Sinus Congestion: Procedure related ([2]; Compound I 2.5%): no
- Non-ocular AE Sinus Congestion: Severity ([2]; Compound I 2.5%): moderate
- Non-ocular AE Sinusitis: Procedure related ([2]; Compound I 2.5%): no
- Non-ocular AE Sinusitis: Severity ([2]; Compound I 2.5%): moderate
- Non-ocular AE Vomiting: Procedure related ([2]; Compound I 2.5%): no
- Non-ocular AE Vomiting: Severity ([2]; Compound I 2.5%): moderate
- Ocular AE Corneal Opacity: Procedure related ([2]; Compound I 2.5%): yes
- Ocular AE Corneal Opacity: Severity ([2]; Compound I 2.5%): mild
- Ocular AE Posterior Vitreous Detachment: Procedure related ([2]; Compound I 2.5%): no
- Ocular AE Posterior Vitreous Detachment: Severity ([2]; Compound I 2.5%): mild
- Ocular AE Punctate Keratitis: Procedure related ([2]; Compound I 2.5%): yes
- Ocular AE Punctate Keratitis: Severity ([2]; Compound I 2.5%): mild
- Non-ocular AE Arthralgia: patients ([2]; Compound I 2.5%, N = 40): 1 (2.5) n (%)
- Non-ocular AE Headache: patients ([2]; Compound I 2.5%, N = 40): 1 (2.5) n (%)
- Non-ocular AE Nasopharyngitis: patients ([2]; Compound I 2.5%, N = 40): 2 (5.0) n (%)
- Non-ocular AE Oropharyngeal Pain: patients ([2]; Compound I 2.5%, N = 40): 1 (2.5) n (%)
- Non-ocular AE Pyrexia: patients ([2]; Compound I 2.5%, N = 40): 1 (2.5) n (%)
- Non-ocular AE Sinus Congestion: patients ([2]; Compound I 2.5%, N = 40): 1 (2.5) n (%)
- Non-ocular AE Sinusitis: patients ([2]; Compound I 2.5%, N = 40): 1 (2.5) n (%)
- Non-ocular AE Tinnitus: patients ([2]; Compound I 2.5%, N = 40): 0 n (%)
- Non-ocular AE Vomiting: patients ([2]; Compound I 2.5%, N = 40): 1 (2.5) n (%)
- Number of AEs ([2]; Compound I 2.5%, N = 40): 12
- Number of drug-related AEs ([2]; Compound I 2.5%, N = 40): 0
- Number of mild severity AEs ([2]; Compound I 2.5%, N = 40): 8
- Number of moderate severity AEs ([2]; Compound I 2.5%, N = 40): 4
- Number of non-ocular AEs ([2]; Compound I 2.5%, N = 40): 9
- Number of ocular AEs ([2]; Compound I 2.5%, N = 40): 3
- Number of procedure-related AEs ([2]; Compound I 2.5%, N = 40): 2
- Number of severe AEs ([2]; Compound I 2.5%, N = 40): 0
- Ocular AE Corneal Infiltrate: patients ([2]; Compound I 2.5%, N = 40): 0 n (%)
- Ocular AE Corneal Opacity: patients ([2]; Compound I 2.5%, N = 40): 1 (2.5) n (%)
- Ocular AE Posterior Vitreous Detachment: patients ([2]; Compound I 2.5%, N = 40): 1 (2.5) n (%)
- Ocular AE Punctate Keratitis: patients ([2]; Compound I 2.5%, N = 40): 1 (2.5) n (%)
- Patients with at least one AE ([2]; Compound I 2.5%, N = 40): 8 (20) n (%)
- Patients with at least one non-ocular AE ([2]; Compound I 2.5%, N = 40): 6 (15) n (%)
- Patients with at least one ocular AE ([2]; Compound I 2.5%, N = 40): 3 (7.5) n (%)
- Differences in safety between compound I and Vehicle ([2]; PRK study): no observed clinically meaningful differences in safety
- Deaths, SAEs, discontinuations due to AEs ([2]; PRK study, 2.5% four times daily for 72 hours): no deaths or SAEs or discontinuation of the drug or discontinuation from the study due to AEs; also recorded: no deaths, or serious or severe AEs, treatment discontinuations or study discontinuations
